Assay results as given in CN108310390A, “多西他赛亚油酸酯及其脂肪乳剂和应用” (Shenyang Pharmaceutical University, priority 2018, dated 2018).
Values after ≈ are worked out from the molar mass of the structure shown.

Columns and labels:
4T1 cells [4T1细胞] [1] = assay: In vitro cytotoxicity test (MTT, 72 h); details: Mus musculus, 4T1, 72 h
4T1 cells [4T1细胞] [2] = system: 4T1 cells [4T1细胞]

Row | Structure (SMILES) | IC50 (4T1 cells [4T1细胞] [1]) [µg/mL] | cytotoxicity (in words) (4T1 cells [4T1细胞] [2])
1 | CC(=O)O[C@@]12CO[C@@H]1C[C@H](O)[C@@]1(C)C(=O)[C@H](O)C3=C(C)[C@@H](OC(=O)[C@H](O)[C@@H](NC(=O)OC(C)(C)C)c4ccccc4)C[C@@](O)([C@@H](OC(=O)c4ccccc4)[C@H]21)C3(C)C [多西他赛] | 0.0265 ± 0.00136 (≈ 0.0328 µM) | –
2 | CCCCCC=CCC=CCCCCCCCC(=O)OC(C(=O)OC1CC2(O)C(OC(=O)c3ccccc3)C3C4(OC(C)=O)COC4CC(O)C3(C)C(=O)C(O)C(=C1C)C2(C)C)C(NC(=O)OC(C)(C)C)c1ccccc1 (stereo not drawn) [多西他赛亚油酸酯] | 0.0136 ± 0.00204 (≈ 0.0127 µM) | 细胞毒性强于多西他赛
